From PubChem BioAssay (NCI)
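Test compounds were applied to cells in 96-well plates for 48 hours at 5 doses. GI50 is the concentration that inhibits growth by half. At the TGI there is no net growth.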

Key:
Assay in all cases: NCI anticancer screen, dose series, 48 h
[1] = system: DU-145 prostate
[2] = system: SR leukemia
[3] = system: SK-MEL-5 melanoma
[4] = system: MOLT-4 leukemia
[5] = system: A549 NSCLC
[6] = system: 786-0 renal
[7] = system: SF-295 CNS
[8] = system: SF-539 CNS
[9] = system: HOP-92 NSCLC
[10] = system: M14 melanoma
[11] = system: BT-549 breast
[12] = system: NCI/ADR-RES ovarian
[13] = system: HCT-116 colon
[14] = system: MDA-MB-231 breast
[15] = system: PC-3 prostate
[16] = system: MDA-MB-468 breast
[17] = system: LOX IMVI melanoma
[18] = system: SF-268 CNS
[19] = system: COLO 205 colon
[20] = system: EKVX NSCLC
[21] = system: HT29 colon
[22] = system: A498 renal
[23] = system: IGROV1 ovarian
[24] = system: SNB-75 CNS
[25] = system: OVCAR-4 ovarian
[26] = system: UACC-257 melanoma
[27] = system: UACC-62 melanoma
[28] = system: HL-60(TB) leukemia
[29] = system: RXF 393 renal
[30] = system: HCT-15 colon
[31] = system: OVCAR-8 ovarian
[32] = system: UO-31 renal
[33] = system: NCI-H460 lung
[34] = system: SW-620 colon
[35] = system: NCI-H226 lung
[36] = system: MCF7 breast
[37] = system: T-47D breast
[38] = system: ACHN renal
[39] = system: MDA-MB-435
[40] = system: TK-10 renal
[41] = system: SNB-19 CNS
[42] = system: CCRF-CEM leukemia
[43] = system: U251 CNS
[44] = system: NCI-H23 lung
[45] = system: RPMI-8226 leukemia
[46] = system: HCC-2998 colon
[47] = system: OVCAR-5 ovarian
[48] = system: HS 578T breast
[49] = system: K-562 leukemia
[50] = system: SN12C renal
[51] = system: CAKI-1 renal
[52] = system: MALME-3M melanoma
[53] = system: HOP-62 NSCLC
[54] = system: OVCAR-3 ovarian
[55] = system: SK-OV-3 ovarian
[56] = system: KM12 colon
[57] = system: NCI-H522 lung
[58] = system: SK-MEL-2 melanoma
[59] = system: SK-MEL-28 melanoma

Work on `CN1CCN(c2ccc(C(=O)/C=C/c3ccc(OC(F)F)cc3)cc2)CC1` yielded a GI50 [1] of 13.6 µM, a TGI [1] of 26.7 µM and a GI50 [2] of 1.96 µM. It also gave a TGI [2] of over 100 µM, a GI50 [3] of 8.94 µM and a TGI [3] of 21.1 µM. The GI50 [4] was 11.6 µM, the TGI [4] was 54.9 µM and the GI50 [5] was 11.7 µM. It also gave a TGI [5] of 25.8 µM, a GI50 [6] of 15.3 µM and a TGI [6] of 39.6 µM. For the same compound, the GI50 [7] was 12.3 µM, the TGI [7] was 24.7 µM and the GI50 [8] was 12.3 µM. It also gave a TGI [8] of 24.7 µM, a GI50 [9] of 6.21 µM and a TGI [9] of 20.9 µM. It also gave a GI50 [10] of 12.3 µM, a TGI [10] of 38.6 µM and a GI50 [11] of 13 µM. It also gave a TGI [11] of 29 µM, a GI50 [12] of 13.9 µM and a TGI [12] of 27.3 µM. It also gave a GI50 [13] of 2.87 µM, a TGI [13] of over 100 µM and a GI50 [14] of 13.5 µM. It also gave a TGI [14] of 26.3 µM, a GI50 [15] of 10.3 µM and a TGI [15] of 26.5 µM. For the same compound, the GI50 [16] was 3.52 µM, the TGI [16] was 14.5 µM and the GI50 [17] was 3.53 µM. The TGI [17] was 13 µM, the GI50 [18] was 18 µM and the TGI [18] was 41.3 µM. For the same compound, the GI50 [19] was 14.2 µM, the TGI [19] was 30.9 µM and the GI50 [20] was 13.1 µM. The TGI [20] was 25.8 µM, the GI50 [21] was 3.41 µM and the TGI [21] was 15.3 µM. It also gave a GI50 [22] of 14.2 µM, a TGI [22] of 27.8 µM and a GI50 [23] of 12.1 µM. It also gave a TGI [23] of 25.2 µM, a GI50 [24] of 4.85 µM and a TGI [24] of 20.3 µM. The GI50 [25] was 14.4 µM, the TGI [25] was 33.8 µM and the GI50 [26] was 13.8 µM. The TGI [26] was 27.2 µM, the GI50 [27] was 14 µM and the TGI [27] was 27 µM. It also gave a GI50 [28] of 4.7 µM, a TGI [28] of 33.4 µM and a GI50 [29] of 4.34 µM. It also gave a TGI [29] of 17.4 µM, a GI50 [30] of 6.88 µM and a TGI [30] of 19.7 µM. The GI50 [31] was 14.2 µM, the TGI [31] was 27.8 µM and the GI50 [32] was 11 µM. For the same compound, the TGI [32] was 23 µM, the GI50 [33] was 14.4 µM and the TGI [33] was 30.1 µM. The GI50 [34] was 4.98 µM, the TGI [34] was 18.5 µM and the GI50 [35] was 10.8 µM. It also gave a TGI [35] of 24.3 µM, a GI50 [36] of 2.74 µM and a TGI [36] of 11 µM. For the same compound, the GI50 [37] was 15.5 µM, the TGI [37] was 38.4 µM and the GI50 [38] was 14.8 µM. For the same compound, the TGI [38] was 27.9 µM, the GI50 [39] was 3 µM and the TGI [39] was 10.7 µM. It also gave a GI50 [40] of 14.8 µM, a TGI [40] of 29.6 µM and a GI50 [41] of 14.7 µM. For the same compound, the TGI [41] was 27.9 µM, the GI50 [42] was 4.3 µM and the TGI [42] was 37.7 µM. The GI50 [43] was 9.79 µM, the TGI [43] was 27.5 µM and the GI50 [44] was 11.8 µM. The TGI [44] was 24.3 µM, the GI50 [45] was 2.6 µM and the TGI [45] was 9.85 µM. It also gave a GI50 [46] of 3.76 µM, a TGI [46] of 14 µM and a GI50 [47] of 14.8 µM. For the same compound, the TGI [47] was 28.1 µM, the GI50 [48] was 14.9 µM and the TGI [48] was 46.2 µM. It also gave a GI50 [49] of 2.8 µM, a TGI [49] of over 100 µM and a GI50 [50] of 13.5 µM. The TGI [50] was 26.3 µM, the GI50 [51] was 13.9 µM and the TGI [51] was 27.2 µM. It also gave a GI50 [52] of 13.1 µM, a TGI [52] of 25.8 µM and a GI50 [53] of 15.4 µM. For the same compound, the TGI [53] was 30.4 µM, the GI50 [54] was 12.1 µM and the TGI [54] was 25.5 µM. It also gave a GI50 [55] of 13.9 µM, a TGI [55] of 27.6 µM and a GI50 [56] of 5.2 µM. The TGI [56] was 22.1 µM, the GI50 [57] was 15.4 µM and the TGI [57] was 32.3 µM. For the same compound, the GI50 [58] was 16.6 µM, the TGI [58] was 31.9 µM and the GI50 [59] was 15.3 µM. The TGI [59] was 28.6 µM.
